Laboratory results: patent publication US9522908B2, “Ezrin inhibitors and methods of making and using” (Georgetown University, priority 2010, dated 2016)

How the values were obtained:
[1] = system: MNNG, human OS cells; experiment: In vivo experimental lung metastasis model, ezrin independent MNNG cells; design: species or system mice
Procedure: FIG. 6 illustrates NSC305787 and NSC668394 inhibit in vivo OS metastatic growth in lungs. (A) K7M2 metastatic OS tumor cells (1×10^6) were injected via tail vein. Vehicle (1% DMSO), NSC305787 (240 μg/kg) and NSC668394 (226 μg/kg) were injected 5 days a week intraperitoneally. Kaplan-Meier survival curves show percent survival for NSC305787 and NSC668394 treatment over time. Median survival of vehicle, NSC305787 and NSC668394 treated K7M2 cells were 28.5, 50, and 49 days after tumor cell injection. […] (B) Fluorescence pictures of whole lungs are given. […] (C) GFP expressing ezrin independent MNNG, human OS cells were injected to mice and treated with vehicle (1% DMSO), NSC305787 (240 μg/kg) and NSC668394 (226 μg/kg). Survival of each group is not different probably because MNNG is an ezrin independent cell line. Median survival of vehicle, NSC305787 and NSC668394 treated MNNG cells were 50.5, 49, and 48.5 days after tumor cell injection. (D) Fluorescent images of the lung tissues of this group are given.
GFP expressing K7M2 or MNNG tumor cells (1×10^6) were delivered by tail vein to nude mice. One day after injection, vehicle, NSC305787 (240 μg/kg/inj) and […] (226 μg/kg/inj) were injected 5 days a week intraperitoneally.

[2] = molecular target: T1, recombinant WT ezrin protein (Mus musculus, UniProt P26040); experiment: SPR direct binding to immobilized recombinant WT ezrin (Biacore); details: 5 independent experiments
T1 construct: full-length recombinant ezrin protein was expressed in bacteria; made in house; host or cells: E. coli M15pREP4 (pQE16 vector)
Procedure: FIG. 7 provides results illustrating the functional activity of select compounds of the present invention on ezrin protein. The chemical structure of the embodied compounds is detailed and the corresponding binding and viability values are listed. The binding potential of select compounds to ezrin was analyzed by using SPR. Recombinant WT ezrin was immobilized onto a Biacore CM5 sensorchip and compounds were injected one-at-a-time at 6 different concentrations. SPR sensograms and KD values were determined using Biacore software. […] The viability and growth inhibition activity of select compounds were determined by treatment of high ezrin expressed K7M2 and low ezrin expressed K12 osteosarcoma cells with a dose range of the select compound for 24 hours. […]
Compounds for initial screening were acquired from 4 libraries (Challenge Set, Diversity Set, Mechanistic Set and Natural Product Set) of the Developmental Therapeutics Program, National Cancer Institute. Their direct ezrin binding potential was analyzed by using Biacore T100 v2.0.3 instrument (GE Healthcare, Piscataway N.J.). […] Existing interactions are measured based on total mass change on the chip surface. Recombinant WT ezrin protein was used as the ligand and immobilized on to a Biacore CM5 sensorchip and compounds were injected one at a time as the binding interactions were recorded. […]

[3] = molecular target: T2, PKC,τ (Homo sapiens, UniProt P41743); experiment: SPR direct binding to PKC,τ (Biacore); details: data not shown
T2 sequence (P41743 1-596): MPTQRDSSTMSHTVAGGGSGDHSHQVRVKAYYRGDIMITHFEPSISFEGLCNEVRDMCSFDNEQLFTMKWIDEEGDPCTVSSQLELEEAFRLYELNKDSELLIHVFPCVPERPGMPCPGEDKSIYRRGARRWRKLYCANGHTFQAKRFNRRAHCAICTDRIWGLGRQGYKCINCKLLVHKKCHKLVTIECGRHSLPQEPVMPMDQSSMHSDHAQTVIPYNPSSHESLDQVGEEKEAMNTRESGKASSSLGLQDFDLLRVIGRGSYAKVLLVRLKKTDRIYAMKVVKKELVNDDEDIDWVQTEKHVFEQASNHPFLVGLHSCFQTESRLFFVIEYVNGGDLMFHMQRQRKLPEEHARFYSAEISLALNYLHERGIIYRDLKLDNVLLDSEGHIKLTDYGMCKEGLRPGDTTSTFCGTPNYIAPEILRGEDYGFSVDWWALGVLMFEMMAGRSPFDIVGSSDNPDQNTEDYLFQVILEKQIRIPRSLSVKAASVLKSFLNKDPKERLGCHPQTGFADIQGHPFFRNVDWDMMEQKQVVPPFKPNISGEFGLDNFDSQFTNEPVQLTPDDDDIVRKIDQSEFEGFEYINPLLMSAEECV

[4] = system: PKC,τ, PKC,α and PKC,γ; experiment: Radioactive in vitro kinase assay of PKC isoforms with nonspecific substrate; assay type: biochemical
Procedure: FIG. 2 illustrates NSC305787 and NSC668394 inhibit ezrin T567 phosphorylation. (A) K7M2 metastatic OS cell line was treated with NSC305787 (10 μM) and NSC668394 (10 μM) for 6 hours. […] The effect of NSC305787 and NSC668394 on recombinant ezrin phosphorylation by recombinant PKC, was tested in an in vitro kinase assay. Phoshorylation of ezrin was detected by a phosphospecific antibody following PAGE and immunoblotting. Experiments were repeated three times and densitometric analysis of bands was used for calculation of % inhibition (graphs). Error bars represents s.d. from three independent experiments. Kinase activities of PKC,τ, PKC,α and PKC,γ were also evaluated with a nonspecific substrate in the presence of NSC305787 and NSC668394 by a radioactive in vitro kinase assay. Data analysis was done by using a sigmoidal dose-response equation where log EC50 for each curve with the ezrin substrate and the non-specific substrate were compared to each other (P=0.0118 for NSC305787 and P=0.0084 for NSC668394).
500 ng of recombinant ezrin protein in kinase assay mix (200 μM ATP) was incubated with the compounds at 1-100 μM concentrations for 15 minutes on ice, then 50 ng PKC,τ (Millipore, Billerica, Mass.) was added. Reaction was performed at 30° C. for 30 min and stopped by adding 2× sample buffer. […]

T1 sequence (P26040 whole entry): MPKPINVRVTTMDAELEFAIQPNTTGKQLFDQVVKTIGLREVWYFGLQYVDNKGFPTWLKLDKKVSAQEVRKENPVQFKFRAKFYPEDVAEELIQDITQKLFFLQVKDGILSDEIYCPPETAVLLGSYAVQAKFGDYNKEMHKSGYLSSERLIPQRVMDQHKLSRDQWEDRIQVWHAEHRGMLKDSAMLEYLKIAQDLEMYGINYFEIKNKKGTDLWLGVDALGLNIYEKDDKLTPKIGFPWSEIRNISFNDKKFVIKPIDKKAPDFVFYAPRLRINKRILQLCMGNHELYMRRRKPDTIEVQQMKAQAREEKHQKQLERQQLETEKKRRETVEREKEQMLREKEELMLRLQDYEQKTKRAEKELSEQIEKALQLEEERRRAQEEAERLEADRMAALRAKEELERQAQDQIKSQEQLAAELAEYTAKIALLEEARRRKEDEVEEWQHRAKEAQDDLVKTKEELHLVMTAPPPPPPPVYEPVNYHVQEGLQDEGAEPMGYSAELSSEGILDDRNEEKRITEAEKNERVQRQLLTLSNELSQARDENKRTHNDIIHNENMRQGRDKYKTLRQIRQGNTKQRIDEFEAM

SMILES: OC(c1cc(C23CC4CC(CC(C4)C2)C3)nc2c(Cl)cc(Cl)cc12)C1CCCCN1 (stereo not drawn) [NSC305787]
- number of GFP expressing metastatic foci in lung tissues ([1]; MNNG cells): not a significant difference
- median survival after tumor cell injection ([1]; MNNG cells by tail vein, i.p. 5 days a week, vehicle 50.5 days): 49 days
- Kd [2]: 5.85 µM
- Kd [3]: 172 µM
- concentration to inhibit all three PKC isoforms ([4]; nonspecific substrate): ~50 µM
- fold higher concentration to inhibit PKC isoforms than to inhibit ezrin phosphorylation ([4]; nonspecific substrate vs ezrin substrate): 10 fold
